{
  "source": "patent US8022090B2",
  "about": "“Vitamin C composition stabilized with cationic material, anionic material and caffeic acid derivative” (The Faceshop Korea Co., Ltd, priority 2007, dated 2011)",
  "test": "solubility measurement in purified water and ethanol",
  "conditions": "for solubility: ethanol (25° C.); for density up to which dissolved: 25° C.",
  "data": [
    {"smiles": "O=C(O)/C=C/c1ccc(O)c(O)c1", "note": "[caffeic acid]", "values": [
      {"measurement": "solubility", "setting": "density 1 mg/mL", "result": "dissolved"},
      {"measurement": "solubility", "setting": "density 10 mg/mL", "result": "dissolved"},
      {"measurement": "density up to which dissolved", "setting": "ethanol", "result": "≥ 10", "unit": "mg/mL"},
      {"measurement": "density up to which dissolved", "setting": "purified water", "result": "not dissolved"}
    ]}
  ]
}
